The values that follow come from patent US20150225454A1, “TETRABRANCHED PEPTIDES AND ANALOGUES AS A NEW CLASS OF ANTIMICROBIALS AND THEIR PREPARATION THEREOF” (priority 2012, published 2015).

Molecules are shown by their SMILES. Values after ≈ are worked out from the molar mass of the structure shown. Where a SMILES comes first, the peptide text is derived from it. Bridges are numbered along the chain shown (N, C = ends). Roman numbers before positions name the chains, in order.

Series [1] relates to C. albicans. Put plainly: microbe, parasite or virus in culture. It is filed as cell-based. The method, then:
The yeast strains were cultivated and suspended in Sabouraud's Dextrose (SD) broth diluted at one sixth at a starting OD600=˜0.08 in a flat-bottomed microtitre plate. A serial dilution of peptide in the same broth was mixed with the inoculum to give a final peptide concentration of 0.4-22 μM. The antifungal activity was assessed by monitoring the OD600 in cycles of 30 minutes and an orbital shaking at 100 rpm using an Infinite M200 microplate reader (Tecan Group Ltd., Switzerland) for 24/48 h at 37° C. Cultures without peptides were used as positive controls and broth alone or with 22 μM peptide served as negative controls. The minimum concentration required for complete inhibition was assessed by both visible observations as well as by measuring the OD600 and taken as the MIC. Each experiment was repeated in triplicates.

Series [2] is described as follows: Calcein release from fungal model membrane SUVs. The note with it: peptide:lipid ratio 1:30 and 1:15. The method, then:
For the preparation of PC/PE/PI or PS/Erg SUV, the lipids were dissolved in chloroform/methanol (2:1, v/v) in a glass tube. Ergosterol was dissolved in same solvent and added to lipid mixture to make final ergosterol content of 15 wt %. The Lipid-ergosterol mixture was dried using nitrogen gas to form lipid layer. The film was hydrated in a buffer containing 20 mM PBS (pH 7), vortexed and sonicated. Each cycle of sonication (5 sec, 40° C.) is followed by freezing in liquid nitrogen and thawing on a water bath kept at 37° C. The procedure was repeated 5-6 times until an optically clear dispersion appeared. The SUV was divided into two parts. To the first part 50 mM calcein was added and incubated for 1 h. The excess calcein was removed by injecting 100 μL of the calcein-loaded SUV's into a Ultrahydrogel™ 250 (7.8 mm×300 mm) column equilibrated with 20 mM PBS (pH 7.0) and eluted isochratically at a flow rate of 1 ml/min for 1.5 column volumes. The calcein-loaded liposomes were mixed with calcein-free liposome (1:1) to adjust final liposome concentration. Peptide concentration was added to obtain 1:30 or 1:15 peptide:liposome ratio. Changes in the fluorescence signal after addition of peptide or Triton X-100 was measured on a PTI spectrofluorometer, using an excitation wavelength of 480 nm and emission wavelength of 512 nm. The Percentage calcein released at each time point was calculated using the equation: […]
Similar protocol was followed for the preparation of PC/Cholesterol SUVs.

For series [3] the following is noted: temperature or pH; cited from earlier work.
For series [4] the following is noted: cited from earlier work.
Series [5] concerns fungi. The note with it: cited from earlier work.

For `CC(C)[C@H](N)C(=O)N[C@@H](CCCNC(=N)N)C(=O)NCC(=O)N[C@@H](CCCNC(=N)N)C(=O)N[C@H](C(=O)N[C@@H](CCCNC(=N)N)C(=O)N[C@@H](CCCCN)C(=O)N[C@@H](CCCNC(=N)N)C(=O)NCCCC[C@H](NC(=O)[C@H](CCCNC(=N)N)NC(=O)[C@H](CCCCN)NC(=O)[C@H](CCCNC(=N)N)NC(=O)[C@@H](NC(=O)[C@H](CCCNC(=N)N)NC(=O)CNC(=O)[C@H](CCCNC(=N)N)NC(=O)[C@@H](N)C(C)C)C(C)C)C(=O)NCCCC[C@H](NC(=O)[C@H](CCCCNC(=O)[C@H](CCCNC(=N)N)NC(=O)[C@H](CCCCN)NC(=O)[C@H](CCCNC(=N)N)NC(=O)[C@@H](NC(=O)[C@H](CCCNC(=N)N)NC(=O)CNC(=O)[C@H](CCCNC(=N)N)NC(=O)[C@@H](N)C(C)C)C(C)C)NC(=O)[C@H](CCCNC(=N)N)NC(=O)[C@H](CCCCN)NC(=O)[C@H](CCCNC(=N)N)NC(=O)[C@@H](NC(=O)[C@H](CCCNC(=N)N)NC(=O)CNC(=O)[C@H](CCCNC(=N)N)NC(=O)[C@@H](N)C(C)C)C(C)C)C(=O)N[C@@H](CCCCN)C(=O)O)C(C)C` [Sc_B4010] (I: H-VRGRVRKRKKK-OH / II: H-VRGRVRKRK / III: H-VRGRVRKR / IV: H-VRGRVRKR; amide I:9-IV:C, I:10-II:C, II:9-III:C; N-terminus and C-terminus assumed), in series [1], the “increase in MIC on scrambling the sequence of B4010” value was 2-4 fold. For the same compound, the calcein release entry is on record as “decreased calcein release” in series [2] and “about 41%” in series [2] (listed as scrambled peptide).
On to `C[C@@H]1[C@H](O)[C@@H](C)/C=C/C=C/CC/C=C/C=C/C=C/C=C/C(O[C@H]2O[C@H](C)[C@@H](O)[C@H](N)[C@@H]2O)CC2O[C@](O)(CC(O)C(O)CCC(O)CC(O)CC(O)CC(=O)O[C@H]1C)CC(O)C2C(=O)O` (some centres unmarked) [Nystatin], for which the Solubility in series [3] is 360 (24° C.) mg/L. Further, the log partition coefficient (logP) in series [4] is given as 0.5. In addition, the Activity result in series [5] was “Broad spectrum”.
For the compound `CC(C)[C@H](NC(=O)[C@H](CCCCN)NC(=O)[C@H](CCCNC(=N)N)NC(=O)CNC(=O)[C@@H](N)CCCNC(=N)N)C(=O)N[C@H](C(=O)N[C@@H](CCCNC(=N)N)C(=O)N[C@@H](CCCNC(=N)N)C(=O)NCCCC[C@H](NC(=O)[C@H](CCCNC(=N)N)NC(=O)[C@H](CCCNC(=N)N)NC(=O)[C@@H](NC(=O)[C@@H](NC(=O)[C@H](CCCCN)NC(=O)[C@H](CCCNC(=N)N)NC(=O)CNC(=O)[C@@H](N)CCCNC(=N)N)C(C)C)C(C)C)C(=O)N[C@@H](CCCCN)C(=O)O)C(C)C` [Peptide B2088, reference compound] (I: H-RGRKVVRRKK-OH / II: H-RGRKVVRR; amide I:9-II:C; N-terminus and C-terminus assumed), in series [1], the “decrease in MIC compared to the monomer” value is around 14 ×. In series [2], the calcein release result is “decreased calcein release”.
With `CN(C/C=C/C#CC(C)(C)C)Cc1cccc2ccccc12` [Terbinafine], in series [3], the Solubility is 0.00074 mg/L (≈ 2.54e-06 mM). In addition, in series [4], the log partition coefficient (logP) is 5.9. Further, the Activity entry in series [5] is “Broad spectrum”.
Take `Nc1nc(=O)[nH]cc1F` [Peptide 5-FC, 5-FC]: the Solubility in series [3] was 1.05e+06 mg/L (≈ 8130 mM). Also, the logP in series [4] is listed as −1.1. Further, the Activity entry in series [5] was “Not active against filamentous fungii”.
